“Also recorded” adds a separate entry of the source.
Legend:
[1] = tested on: pancreatic acini; experiment: Acinar-adipocyte co-culture; assay type: cell-based, mice
From the text: Harvesting cells: Primary acinar cells from wild type mice (C57B6) were harvested and used as described previously. Viability, confirmed by trypan blue exclusion, was >95%. […] These were used in the individual experiments. Data presented is representative of 3 or more experiments. Acinar-adipocyte co-culture: This was done in 12-well companion plates with cell culture inserts (FIG. 14). […] Serum and medium cytokine assays: These were done for TNF-α, MCP-1, IL-6, resistin, and adiponectin using the fluorescence-based capture sandwich immunoassay based on the Luminex FlowMetrix system (Luminex). The Milliplex Mouse Adipokine Panel (7-Plex) 1 kit from Millipore (Billerica, Mass.) was used. Samples were analyzed using the Bio-Plex suspension array system, which included a fluorescent reader and Bio-Plex Manager analytical software (Bio-Rad Laboratories, Hercules, Calif.) at the University of Pittsburgh, Cancer Institute Luminex Core Facility. Visceral fat triglyceride composition: The visceral fat triglyceride composition analysis was done at Kennedy Krieger Institute (Baltimore, Md.). Briefly, total lipids were extracted by the method of Folch. […] The fatty acids were derivatized and analyzed by GCMS as their pentafluorbenzylbromide esters. ATP levels, cytochrome C release, and % LDH leakage were measured as previously described. Apoptosis was measured by active caspase-3 [western blotting, activity assays (Enzcheck, Invitrogen, Carlsbad, Calif.)], TUNEL assays, and Hoechst dye nuclear incorporation (8 mg/ml Hoechst 33342 added for 15 minutes after treatment). […] Results were reported as % of cells with given nuclear changes. These were counter stained with PI (1 μM) to stain necrotic cells (FIG. 7A, B, C) and imaged with a Zeiss Meta dual fluorescence confocal microscope. PI-positive cells were counted as late apoptosis or necrosis. […] Autophagy was studied by western blotting for LC3-I and II. RNA was extracted using Trizol (Invitrogen, Carlsbad, Calif.). mRNA levels of TNF-α, CXCL1, and CXCL2 were measured as described previously using real time-PCR performed on an ABI Prism 7000 Sequence Detection System (Applied Biosystems, Foster City, Calif.) on proprietary Taqman Gene Expression assay reagents (Applied Biosystems). Mitochondrial complex assays and citrate synthase assay were done as described previously.

[2] = tested on: adipocytes; experiment: Isoproterenol-stimulated glycerol release in adipocyte culture; assay type: cell-based
[3] = tested on: ob/ob mice; experiment: IL12+18 pancreatitis model; assay type: in vivo; conditions: for pancreatic changes: fat necrosis, saponification, peri-fat acinar necrosis, acinar necrosis, hypocalcemia (gross, histologic, biochemical): orlistat 50 mg/kg every 12 hours from 2 hours after induction; for serum SFA levels: orlistat vs IL+Veh group
From the text: For histologic evaluation, we retrieved all hematoxylin and eosin-stained slides of the pancreas (1-4 in number) of control and acute pancreatitis patients. A trained pathologist with specific interest in gastrointestinal pathology blinded to demographic and clinical data examined the slides. Adipose tissue with large vessels and nerves not bounded by at least 2 pieces of pancreatic parenchyma was regarded as peripancreatic and excluded. The remaining adipose tissue, necrotic fat (bluish cheesy appearance of adipocytes), necrotic parenchyma, and parenchymal necrosis immediately contiguous to areas of fat necrosis (peri-fat acinar necrosis; PFAN) were additionally measured. All of these were measured as a percentage pixel area of each individual field after excluding dead space using Adobe Photoshop PS. The pixel areas of individual parameters for each case were added. The final number was divided by the number of fields to give a percentage area for that parameter in the section. For patients with more than 1 section, the average of the percentage of intrapancreatic fat for all fields from different sections was chosen as representative for the specimen. Von Kossa (to study fat necrosis, saponification), TUNEL (Terminal deoxynucleotidyl transferase dUTP nick end labeling), and oil red O staining were done per standard protocol.
Serum and medium cytokine assays: These were done for TNF-α, MCP-1, IL-6, resistin, and adiponectin using the fluorescence-based capture sandwich immunoassay based on the Luminex FlowMetrix system (Luminex). The Milliplex Mouse Adipokine Panel (7-Plex) 1 kit from Millipore (Billerica, Mass.) was used. Samples were analyzed using the Bio-Plex suspension array system, which included a fluorescent reader and Bio-Plex Manager analytical software (Bio-Rad Laboratories, Hercules, Calif.) at the University of Pittsburgh, Cancer Institute Luminex Core Facility.
Pancreatitis model: IL12+18 model: There were 8-12 animals in each group. Pancreatitis was induced as described previously in 8-10 week old female ob-ob (B6.V-Lepob/J) mice. Briefly, IL-12 (150 ng/dose/mouse) and IL-18 (750 ng/dose/mouse) were simultaneously given intraperitoneally in 2 doses, 24 hours apart. Orlistat at reduced dose than previously published (50 mg/kg) was administered in vehicle (0.1 ml 30% ethanol) as described previously. First injection of orlistat or vehicle was 2 hours after induction of pancreatitis, and these were then repeated every 12 hours.
Non-esterified fatty acid analysis: The sample was extracted with isopropanol-heptane-hydrochloric acid (1M) (40:10:1, v/v) by vortexing for 25-30 min and allowed to incubate at room temperature for 10 minutes. Heptane (4.0 ml) and water (2.0 ml) were added, and the tubes were thoroughly vortexed for 5 minutes. Tubes were centrifuged at 1000 g for 10 minutes at 4° C., and the upper phase (heptane) is transferred into 13×100 mm screw top tubes and dried in a SpeedVac centrifugal concentrator. Non-esterified fatty acids were derivatized with dimethylamine using the Deoxo-Fluor reagent. Non-esterified fatty acid concentrations are measured by gas chromatography separation with flame ionization detection using heptanoic acid as an internal standard. This derivatization method is very mild and efficient and is selective only towards non-esterified fatty acids so that no separation from a total lipid extract is required.

[4] = tested on: Male Wistar rats; experiment: Intraductal infusion of glyceryl trilinoleate (GTL) pancreatitis; assay type: in vivo
Procedure: Experiments were performed using a model, the technique of which is established and well described in rats (1, 2, 4, 7). This involves infusion of agents into the pancreatic duct to cause acute pancreatitis (1, 2, 4, 7). We will refer to this technique as “intraductal infusion”. We compared the severity of pancreatic damage and survival of rats after intraductal infusion of Glyceryl trilinoleate with and without the lipase inhibitor orlistat. In addition, we used a different lipase inhibitor-cetilistat (3, 6), and studied its efficacy in improving survival of rats in intraductal infusion pancreatitis induced with Glyceryl trilinoleate (GTL).
Male Wistar rats (250-350 gm), were anesthetized. Intraductal infusion of 0.1 ml (n=5) or 0.2 ml (n=5) of GTL (Sigma-Aldrich corporation) alone or GTL+orlistat (Caymen chemical, Ann Arbor, Mich.) (75 mg/ml, 0.1 ml n=5 or 0.2 ml n=5) or GTL+cetilistat (Jinan Wedo Industrial Co., Ltd., Jinan City, Shandong China) (25 mg/ml, 0.2 ml, n=10) was done as described previously (1, 2, 4, 7). All animals were given pain control (buprenorphine 200 mcg/kg BID), Cefazolin (100 mg/kg), and 10 cc saline subcutaneously BID as per the IACUC protocol. These were followed for survival.

[5] = tested on: mouse melanoma model; conditions: Carvalho et al., Int. J. Cancer 2008; cited from earlier work
[6] = orlistat 50 μM, acini co-cultured with adipocytes
[7] = orlistat 50 mg/kg every 12 hours
[8] = in combination with GTL, at necropsy

Compound: CCCCCCCCCCC[C@@H](C[C@@H]1OC(=O)[C@H]1CCCCCC)OC(=O)[C@H](CC(C)C)NC=O [orlistat]
- amylase secretory response to caerulein after co-culture ([1]; 50 μM orlistat, basal, 100 pM and 100 nM caerulein): amylase secretory pattern like control acini
- resistin levels in the medium ([1]; 50 μM orlistat, co-culture): prevents increase in resistin
- acinar cell viability and function [1, 6]: restored acinar cell viability and function to control levels
- co-culture induced acinar cell changes (necrosis: propidium iodide positivity, drop in ATP levels, cytochrome c leakage; NEFA and resistin increase in medium) [1, 6]: completely prevented
- 10 μM isoprotrenol stimulated increase in glycerol levels ([2]; 50 μM orlistat, 1 hour adipocyte culture): not significantly prevented
- permeability through cell membranes ([2]; inferred from glycerol release experiment): limited permeability; also recorded: low permeability
- serum amylase and lipase levels ([3]; compared with IL or IL+Veh groups): significantly reduced
- lung injury (apoptotic cells, lung MPO levels) [3, 7]: significantly reduced
- mortality [3, 7]: significantly reduced
- renal end organ damage (BUN, tubular vacuoles, oil red O, TUNEL, mitochondrial swelling, saponification) [3, 7]: normalized
- serum UFA levels [3, 7]: significantly reduced
- serum resistin, TNF-α, MCP-1 and IL-6 [3, 7]: normalized
- pancreatic changes: fat necrosis, saponification, peri-fat acinar necrosis, acinar necrosis, hypocalcemia (gross, histologic, biochemical) [3]: prevents saponification
- pancreatic changes: fat necrosis, saponification, peri-fat acinar necrosis, acinar necrosis, hypocalcemia (gross, histologic, biochemical) ([3]; listed as Orlistat): significantly blocked
- renal end organ damage (BUN, tubular vacuoles, oil red O, TUNEL, mitochondrial swelling, saponification) ([3]; orlistat 50 mg/kg every 12 hours, listed as Orlistat): reduces these
- serum SFA levels [3]: not significantly reduced
- serum SFA levels ([3]; listed as Orlistat): did not significantly reduce
- mortality ([4]; dead/total, intraductal GTL alone, GTL+orlistat 75 mg/ml, GTL+cetilistat 25 mg/ml, followed to day 5): 0/10
- lung injury (TUNEL positive nuclei) [4, 8]: absence of TUNEL positive nuclei
- renal injury (TUNEL positive nuclei) [4, 8]: nearly completely prevented
- lung injury (TUNEL positive nuclei) ([4]; in combination with GTL, at necropsy, listed as Orlistat): nearly completely prevented
- gross pancreatic appearance: hemorrhages and necrosis ([4]; intraductal GTL with or without lipase inhibitor): prevented the hemorrhages and necrosis up to 5 days
- apoptosis, cell growth and lymph node metastasis [5]: promote apoptosis and reduce cell grown and lymph node metastasis

— patent US9943499B2, “Lipase inhibitors for the treatment of pancreatitis and organ failure” (priority 2011, dated 2018)
